# According to patent publication US20250011686A1, “BIODEGRADABLE CHELATING AGENTS AND METHODS FOR FABRIC CARE” (The Procter & Gamble Company, priority 2023, published 2025):
# Assays:
# Type in all cases: physicochemical
# [1] = pKa of chelating agent (Table 1); conditions: successive pKa values; for catechin (A)/(B)
# Source text: Chelation is a type of bonding of ions and molecules to metal ions. It involves the formation or presence of two or more separate coordinate bonds between a ligand and a metal atom. Without being bound by theory, the stain removal effectiveness of a composition comprising one or more chelating agents may depend at least in part on the ability of the chelating agent(s) to bind to iron, which may be present in some stains, such as fruit or beverage stains. Several factors may impact a chelating agent's ability to bind to iron. These factors may include the pKa of the chelating agent compared to the wash pH, and the affinity of the chelating agent to bind with other metals, materials, or compositions in the wash.
# Various embodiments may provide or employ a composition that comprises one or more chelating agents having a pKa that is less than the wash pH.
# [2] = Calcium binding efficiency, logK(β110) (Table 1); conditions: one metal, one ligand, no protons
# Source text: (§1) The binding efficiencies may be expressed as a binding constant. A binding constant (also called formation constant or stability constant) is an equilibrium constant for the formation of a complex in solution. It is a measure of the strength of the interaction between the reagents that come together to form the complex. As an example, various stains may comprise catechins as shown in Formula 13. In Table 1, the reaction between metals and ligands is described in terms of log K(β110). In this context, K, is the equilibrium constant for the reaction between ligands and metals. The higher K, the more metal is bound. This is illustrated in the following example. β, represents the binding efficiency and receives some subscripts (βmlh) to indicate how many metals (m), ligands (l), and protons (h) respectively are involved.
# [3] = Iron binding efficiency, logK(β110) (Table 1); conditions: one metal, one ligand, no protons
# Source text: as §1
Structure (SMILES),pKa [1],Ca^2+ logK(β110) (calcium binding efficiency) [2],Ca^2+ logK(β110) (calcium binding efficiency) ([2]; listed as catechins),Fe (III) logK(β110) (iron binding efficiency) [3],Fe (III) logK(β110) (iron binding efficiency) ([3]; listed as catechins)
Oc1cc(O)c2c(c1)OC(c1ccc(O)c(O)c1)C(O)C2 (stereo not shown) [Catechin],8.7,3.5,about 3.5,19.2,about 19.2
"CC(O)(P(=O)(O)O)P(=O)(O)O [HEDP, 1-Hydroxyethylidene-1,1-diphosphonic acid, reference compound]",–,6.8,–,14.1,–
"CC(C)c1cccc(=O)c(O)c1 [Hinokitiol, 2-Hydroxy-6-(propan-2-yl)cyclohepta-2,4,6-trien-1-one]",~7,2.2,–,12.9,–
"O=c1cccccc1O [Tropolone, 2-Hydroxycyclohepta-2,4,6-trien-1-one]",6.7,3.1,–,10.5,–
